Data as given in patent publication US20070037833A1, “Compositions and methods for inhibiting neurodegeneration” (priority 2005, published 2007).
Values joined by “and” are separate entries in the source; they are usually repeats but may differ in a detail not shown here. Equal entries are not always repeated. “Also recorded” adds a separate entry of the source.

What was measured:
[1] = test system: motor neurons in embryonic rat spinal cord cultures; experiment: Excitotoxicity assay (100 μM kainic acid) in mixed spinal cord cultures; type: cell-based; conditions: for excitotoxic motor neuron death: drug for 4 days (added 4 and 2 days) prior to 100 μM kainic acid 1 h, SMI-32(+) motor neurons counted 24 h later; for % of motor neurons killed (cell death) after excitotoxic insult: 4 day pre-treatment prior to 100 μM kainic acid
Method: Unless otherwise specified, BDNF was added to all cultures.
Many previous in vitro investigations have identified motor neurons in mixed spinal cord cell culture by immunostaining for non-phosphorylated neurofilaments (or peripherin) and restricting analysis to cells with a soma diameter of 25 μm or greater (Carriedo et al., 2000; Hu and Kalb, 2003). We wanted to confirm the validity of this approach using an independent method for determining whether a given cell is a motor neuron. To specifically identify motor neurons in our cultures we purified these cells by metrizamide gradient and immunopanning techniques (Henderson et al., 1993; Fryer et al., 1999), live-labeled them with CM-DiI, and added these fluorescently-tagged, bona fide motor neurons to mixed cell cultures at the time of initial plating. All CM-DiI labeled cells stained for motor neurons markers such as non-phosphorylated neurofilament H (using antibody, SMI-32), peripherin, choline acetyl transferase (ChAT) and islet ½ (FIG. 1, panel a.). We then subjected spinal cord cultures to an excitotoxic insult and determined motor neuron survival using multiple methods for identifying motor neurons. […] Since all SMI-32 (+) cells with cell body diameter of 25 μm or greater were CM-DiI (+) and all CM-DiI (+) cells were SMI-32 (+), for the remainder of the studies herein, we could confidently study motor neuron death in vitro by counting SMI-32 (+) cells with a cell body diameter of 25 μm or greater.

[2] = test system: Trk; experiment: Immunoblot for phosphoTrk in spinal cord cultures; type: cell-based, rat; conditions: 24 hours treatment
Method: (§1) Cells were lysed in 1% NP-40 lysis buffers containing protease inhibitors, subjected to SDS-PAGE and immunoblotted as previously described (Fryer et al., 1999; Fryer et al., 2000). For immunoprecipitation, lysates from 60 mm dishes were pre-cleared by incubation with protein A beads (Santa Cruz), incubated with primary antibody (4 μg/ml)×2 hours then 50 μL of beads added and incubated overnight with gentle agitation at 4° C. Beads were pelleted, washed 5× with 10 mM Tris pH 7.4+0.5 mM EGTA+0.5 mM EDTA+0.1% NP40 before elution in 1× Laemelli sample buffer. Antibody sources: BD Transduction Labs—TrkB and MAP Kinase used at 1:500, Cell Signaling—Akt 1:1000; phosphoTrk (tyr490) 1:1000; phospho p42/44 MAP Kinase (thr 202/tyr204) 1:1000; phosphoAkt (ser473) 1:500; IGFI antibody (tyr 1131) 1:500. Upstate—adenosine A2a 1:1000. Sigma—actin 1:200. Biosource—active src (clone 28) 1:200.
(§2) We next asked about the effect of the adenosine A2 receptor antagonism on Trk signaling. Cultures of spinal cord cells (grown in the presence of a cocktail of trophic factors including 10 ng/ml BDNF) received KW6002 (1 μM), MRS1754 (50 nM) or vehicle (DMSO 0.1%) and 24 hrs. later, lysates were prepared for immunoblots for Trk and the MAP kinase downstream signaling module (FIG. 2, panel a). Immunoblots for phosphoTrk and phosphoMAPK were employed to monitor the state of activation of these proteins.
(§3) We followed up these observations by determining the effect of enprofylline on Trk signaling and determined the extent to which the resultant biochemical changes mimic the effects of direct pharmacological Trk antagonism with CEP4416. […] The effect of drug treatment on AKT was particularly marked. […] To determine the specificity of these agents, we examined their effect on Insulin-like growth factor 1 (IGF1) signaling through the IGF receptor tyrosine kinase (IGFR). […] It is unlikely that phosphodiesterase activity of enprofylline can explain these observations as increased cAMP levels enhance, not suppress, TrkB activation (Boulanger and Poo, 1999; Ji et al., 2005).

[3] = test system: motor neurons in embryonic rat spinal cord cultures; conditions: Mojsilovic-Petrovic et al., 2005; cited from earlier work
[4] = test system: src-family kinases (SFK); experiment: Immunoblot for active SFKs (clone 28 antibody) in spinal cord cultures; type: cell-based, rat; conditions: 24 hours treatment; listed as MRS 1754
Method: as §1
The precise mechanism by which G-protein coupled receptors trans-activate receptor tyrosine kinases is complex and to some extent receptor-subtype specific (Luttrell et al., 1999; Downward, 2003; Piiper and Zeuzem, 2004; Waters et al., 2004). […] If this pathway was operative in spinal cord neurons, then antagonism of adenosine A2a receptors might lead to reduced src activation and antagonism of SFKs might be neuro-protective. Src is negatively regulated by phosphorylation of tyrosine 529 (refers to human src sequence) and an antibody that recognizes a de-phospho epitope in this region (“clone 28”) is a reliable measure of active src and SFKs (Kawakatsu et al., 1996). We began by asking for adenosine A2a receptors and active SFKs are present in the same cells and if so, their subcellular distribution. Pure motor neurons, grown in the presence of BDNF were immunostained with a rabbit anti-adenosine A2a receptor and the clone 28 antibody. One hundred percent of motor neurons expressed both antigens and on dendrites, the immunoreactivity formed discrete fine puncta (FIG. 5a). Many, but not all, puncta were stained with both antibodies. […]

[5] = test system: MAP kinase; experiment: Immunoblot for phosphoMAPK in spinal cord cultures; type: cell-based, rat; conditions: 24 hours treatment
Method: as §1, §2, §3

[6] = test system: IGF receptor tyrosine kinase (IGFR); experiment: Immunoblot for phospho-IGFR in spinal cord cultures; type: cell-based, rat; conditions: 5 nM, 30 min
Method: as §1, §3

[7] = test system: motor neurons expressing G59S p150^glued; experiment: Motor neuron death from HSV-expressed mutant p150glued in spinal cord cultures; type: cell-based, rat; conditions: 6 days post-infection; treatment daily or every other day
Description: (§4) Various cDNAs were cloned into the PrpUC amplicon plasmid and were used to generate recombinant HSV as previously described (Neve et al., 1997). The titer of viruses used in these studies were routinely 3-5×10^7 plaque-forming units/ml. The cDNA for wild type/mutant SOD and wild type/mutant p150^glued were gifts of D. Borchelt and E. Holzbaur, respectively. The K295R mutant version of chick src was a gift of J. Brugge.
(§5) Mutations in superoxide dismutase (SOD) or the p150^glued subunit of dynactin are known to account for a familial form of ALS in a subpopulation of individuals (Rosen, 1993; Puls et al., 2003; Bruijn et al., 2004). We inquired whether expression the mutant forms of SOD or p150^glued caused motor neuron death in vitro and if Trk antagonism was neuroprotective. Recombinant herpes simplex viruses (HSVs) were generated that expressed wild type or mutant form of SOD (G85R) and wild type or mutant p150^glued (G59S). […] Spinal cord cultures were infected with virus at 14 DIV and the number of motor neurons was determined 2, 4, 6 or 8 days later (FIG. 4, panel a.).
(§6) We next determined if KW6002 could protect motor neurons from the toxic effects of mutant proteins. Spinal cord cultures were infected with viruses expressing wild type or mutant versions of SOD or p150^glued at 14 DIV, then treated with drug or vehicle for 4 days (FIG. 4, panel b.). […]

[8] = test system: motor neurons expressing G85R SOD; experiment: Motor neuron death from HSV-expressed mutant SOD in spinal cord cultures; type: cell-based, rat; conditions: 6 days post-infection; treatment daily or every other day
Description: as §4, §5, §6

Question: For `C[C@]12O[C@H](C[C@]1(O)CO)n1c3ccccc3c3c4c(c5c6ccccc6n2c5c31)CNC4=O` [CEP701], which “excitotoxic motor neuron death” value [1] is on record?
Answer: Its value is “No motor neuron death occurred”.

Question: What about the “excitotoxic motor neuron death” value ([1]; listed as CEP-701) of the same molecule?
Answer: The value was “completely blocked the loss of SMI(+) neurons”.

Question: For `Nc1ncnc2c1ncn2C1CCCO1` (stereo not drawn) [SQ 22536], which “% of motor neurons killed (cell death) after excitotoxic insult” value (“% of motor neurons killed (cell death)” for short) [1] is on record?
Answer: Its value is 40% and 42±4%.

Question: What about the “basal survival of motor neurons” value ([1]; 4 day pre-treatment, without excitotoxic challenge) of the same molecule?
Answer: The value was “did not adversely affect the basal survival of motor neurons”.

Question: For `O=S(=O)(NCCNC/C=C/c1ccc(Br)cc1)c1cccc2cnccc12` [H89], which “% of motor neurons killed (cell death)” value [1] is on record?
Answer: Its value is 40% and 53±5%.

Question: With `Cc1ccc(-c2nn(C(C)(C)C)c3ncnc(N)c23)cc1` [PP1] as the molecule, how does the “% motor neuron survival after excitotoxic challenge” value ([1]; SFK inhibition before excitotoxicity assay) read?
Answer: Its value is 100±2%.

Question: What about the “number of motor neurons surviving excitotoxic challenge” value ([1]; SFK inhibition, versus LacZ or vehicle) of the same molecule?
Answer: Its value is “statistically significant greater number of motor neurons”.

Question: What about the “abundance of phosphoTrk” value [2] of the same molecule?
Answer: The value was “reduction in the abundance of phosphorylated Trk; also recorded: reduction in the abundance of phosphoTrk”.

Question: Which “excitotoxic cell death in pre-treated cultures (previous observations)” value [3] does the source give for `CCCn1c(=O)c2[nH]c(C3CCCC3)nc2n(CCC)c1=O` [DPCPX] here?
Answer: Its value is “death occurred”.

Question: Which “% of motor neurons killed (cell death)” value [1] does the source give for `CCCC(=O)Nc1ncnc2c1ncn2[C@@H]1O[C@@H]2COP(=O)(O)O[C@H]2[C@H]1OC(=O)CCC` [db-cAMP, dibutryl-cAMP] here?
Answer: The value was −2±3%.

Question: What about the “excitotoxic motor neuron death” value [1] of the same molecule?
Answer: The value was “No excitotoxic cell death occured”.

Question: What does the source list for `CCCn1c(=O)c2[nH]c(-c3ccc(OCC(=O)Nc4ccc(C#N)cc4)cc3)nc2n(CCC)c1=O` [MRS1754]?
Answer: % of motor neurons killed (cell death) after excitotoxic insult [1]: 50%; % of motor neurons killed (cell death) after excitotoxic insult ([1]; listed as MRS 1754): ~40%; abundance of active SFKs [4]: only reduced in cultures treated with KW6002; abundance of phosphoTrk [2]: indistinguishable from the vehicle control; abundance of phosphoMAPK [5]: indistinguishable from the vehicle control

Question: For IGF1: Insulin-like growth factor 1, which “IGFR phosphorylation upon acute administration” value [6] is on record?
Answer: The value was “robust induction of phospho-IGFR; also recorded: strong increase in IGFR phosphorylation”.

Question: Which “motor neuron survival / toxicity of G59S p150glued” value [7] does the source give for `N#Cc1cc2[nH]c(=O)c(=O)[nH]c2cc1[N+](=O)[O-]` [CNQX] here?
Answer: The value was “significantly greater number of motor neurons; also recorded: completely prevented the toxicity of mutant protein expression”.

Question: What about the “motor neuron survival / toxicity of G85R SOD” value [8] of the same molecule?
Answer: Its value is “significantly greater number of motor neurons; also recorded: completely prevented the toxicity of mutant protein expression”.

Question: Which “loss of motor neurons” value ([1]; 100 μM for 1 hour, counted 24 hours later, 14-16 DIV) does the source give for `C=C(C)[C@H]1CN[C@H](C(=O)O)[C@H]1CC(=O)O` [kainic acid] here?
Answer: The value was roughly 45%.

Question: For `Nc1nc(NCCc2ccc(O)cc2)nc2nc(-c3ccco3)nn12` [ZM241385], which “excitotoxic cell death in pre-treated cultures (previous observations)” value [3] is on record?
Answer: The value was “no excitotoxic cell death”.
